Test results reported in patent publication US20060286159A1 (priority 2003, published 2006).
Entries after “also recorded” stand apart in the source; their conditions may differ.

Legend:
[1] = system: chronic non-insertional Achilles tendinopathy; assay: Non-insertional Achilles tendinopathy clinical trial (randomized, double blind, placebo controlled); assay type: in vivo, human
Description: (§1) Three clinical trials were approved by an institutional Ethics Committee. Patients with clinical diagnoses of the specified tendinopathies were recruited through newspaper advertisements and private consulting rooms. All subjects were over 18 years of age, and gave written informed consent.
(§2) In the non-insertional Achilles tendinopathy trial, there were 65 patients (84 Achilles tendons) with 40 men and 25 women enrolled in the study, having a median age of 49 years (range 24 to 77 years), and a median duration of symptoms prior to the study of 16 months (range 4 to 147 months). In the extensor tendinopathy trial, there were 86 patients (95 elbows), with 42 males and 44 females, having a median age of 46 years (range 30 to 74 years), and a median duration of symptoms of 17 months (range 3 to 232 months). In the supraspinatus tendinopathy trial, there were 53 patients (57 shoulders), with 24 males and 29 females, having a median age of 52 years (range 25 to 79 years), and a median symptom duration of 14 months (range 4 to 96).
(§3) Diagnostic criteria for patient inclusion in the respective trials were as follows. The diagnosis of chronic non-insertional Achilles tendinopathy was based on an insidious onset of Achilles tendon pain, a tender nodule localized to the region 2 to 6 centimeters from the calcaneal insertion, and an ultrasound examination that excluded a frank tendon tear. The diagnosis of chronic extensor tendinopathy at the elbow was based on an insidious onset of lateral elbow pain, tenderness localized to the lateral humeral epicondyle and extensor carpi radialis brevis tendon, pain in the lateral elbow with resisted wrist or third metacarpophalangeal joint extension, and an ultrasound examination that excluded a frank tendon tear. The diagnosis of chronic supraspinatus tendinopathy was based on positive impingement signs (internal or external rotation), pain with supraspinatus muscle testing, and magnetic resonance imaging (MRI) high signal intensity without frank tear in the supraspinatus tendon.
(§4) Patients were excluded if they had tendinopathy of less than three months duration, current pregnancy, previous surgery on the affected limb or tendon, dislocation of the ipsilateral limb joints, distal neurological signs, a local corticosteroid injection in the previous three months, the current use of nitrate medications or phosphodiesterase inhibitors such as Viagra™, a family history of arthritis other than osteoarthritis, or extra-articular features of seronegative arthropathies. Generally, every participating patient could be considered to have persistent active tendinopathy.
(§5) The patients were randomly allocated into two groups. […] The active and placebo patches were indistinguishable from one another. The randomization was controlled by the senior pharmacist at the institution who also supervised the packaging of transdermal patches and their distribution to patients. Both the patients and the clinical examiner were blinded as to which group the patients were in, i.e. double-blind.
(§6) The transdermal patches were intact when distributed, and patients were required to cut the patches into quarters prior to application. Patients were also given a supply of paracetamol tablets (500 mg), and were instructed to use them exclusively for any headaches experienced.
(§7) Patients were instructed in the application of the patches at their initial visit. They were informed that the dosing regimen was one quarter of a transdermal patch to be applied daily to the skin area closest to the affected tendon. The patches were to be left in situ for 24 hours and then replaced with a new quarter patch. […] Patients were instructed to rotate the patch application site around this point with each new patch application for the six-month study duration in an effort to minimize application site irritation.
(§8) At the initial clinical assessment, all patients were instructed in the performance of a tendon specific rehabilitation program. […]

[2] = system: chronic supraspinatus tendinopathy; assay type: in vivo, human
Description: as §1, §2, §3, §4, §5, §6, §7, §8

[3] = system: Achilles tendinopathy (heels); assay: Three year follow-up study of the Achilles trial of Example 1; assay type: in vivo, human; details: for Night Pain—All Heels (mean adjusted for baseline) / Pain at Rest—All Heels (mean adjusted for baseline) / Pain With Activity—All Heels (mean adjusted for baseline) / Tenderness—All Heels (mean adjusted for baseline) / Hop Test—All Heels (mean adjusted for baseline): N=32; for Pain With Activity—All Heels (mean adjusted for baseline): scale 0-4; for Tenderness—All Heels (mean adjusted for baseline): scale 0-3; for Hop Test—All Heels (mean adjusted for baseline): pain score 0-10
Experimental: A three year follow-up study of the experiment presented in Example 1 was performed. […] Among the 52 patients in follow-up study ([…]), 15 had bilateral involvement (7 on the active patch and 8 on placebo). The results are presented in two sets. The follow-up study used the same outcome measures as were used in the original parent study.
The first set compares the results of the 68 heels and the second set results are shown for the 52 patients by averaging results for patients with bilateral involvement. Analyses were performed as analyses of covariance, with the baseline assessment as the covariate, to adjust the results for baseline differences. Mean results shown in Tables III-XIII below are adjusted for the baseline values.

[4] = system: chronic extensor tendinopathy at the elbow; assay: Extensor tendinopathy (tennis elbow) clinical trial (randomized, double blind, placebo controlled)
[5] = week 24, more patients asymptomatic with activities of daily living than placebo, 1.25 mg/24 h patch + rehabilitation
[6] = 3 years, N=24, placebo 0.51, p=0.09
[7] = 24 weeks, N=24, placebo 0.86, p=0.09

In the case of O=[N+]([O-])OCC(CO[N+](=O)[O-])O[N+](=O)[O-] [glyceryl trinitrate, 1,2,3-propanetriol trinitrate], the “Headache (Days) Average” value ([1]; GTN group) is reported as “GTN 5 Days”, the “Headache (Days) Median” value ([1]; GTN group) is reported as “GTN 4 Days” and the “Headache (Days) Total” value ([1]; GTN group) is reported as 85 days. For the same compound, the “Headache: percentage of patients” value ([1]; GTN group) was 53%, the “No Side Effects” value ([1]; GTN group) was “GTN 44%” and the “Other Noted Side-Effects: Increase Tinnitus” value ([1]; GTN group) was “Tinnitus (3%)”. The “Tenderness Outcomes: Achilles tenderness vs placebo” value ([1]; Week 12 (p=0.02)) was “significant decreases; also recorded: significantly less; also recorded: Decreased Week”, the “Pain Outcomes: Achilles tendon pain with activity vs placebo” value ([1]; Week 12 (p=0.02) / 24 (p=0.03)) was “significant decrease; also recorded: Decreased” and the “Pain Outcomes: night pain vs placebo” value ([1]; Week 12 (p=0.04)) was “significant decrease; also recorded: Decreased”. For the same compound, the “Functional Outcomes Measures: Hop Test vs placebo” value ([1]; Week 24) was “Increased Hop”, the “Force Outcomes: ORI-ASTS mean plantarflexion total work vs placebo” value ([1]; Week 24 (p=0.04), from baseline levels) was “significant increase; also recorded: Increased Mean” and the “Other Noted Side-Effects: Rash” value ([1]; application site, GTN group) was “Rash 16%,”. For the same compound, the “number needed to treat (NNT)” value ([1]; excellent result at 24 weeks, Chi square p=0.001) was 3.4, the “total amount of paracetamol required for headache treatment vs placebo” value ([1]; p=0.001) was “significant increases; also recorded: significant between-group differences” and the “Discontinuations: Headache” value ([1]; patients, all GTN group) was “Headache 1”. The “Discontinuations: Rash” value ([1]; patients, all GTN group) was “Rash,”, the “Paracetamol Average” value ([1]; used for headache, GTN group) was “GTN 14 tablets” and the “Paracetamol Median” value ([1]; used for headache, GTN group) was “GTN 10 tablets”. The “Paracetamol Total” value ([1]; used for headache, GTN group) was “GTN 237 tablets”, the “pain scores after the 10 hop test vs placebo” value ([1]; week 24 (p=0.005)) was “significant decrease” and the “Improved Patient Outcomes” value [1, 5] was 29%. The “patients with excellent improvement (asymptomatic with activities of daily living), patient reported” value ([1]; week 24, placebo 49%) was 78%, the “Headache (Days) Average” value ([2]; GTN group) was “GTN 6 Days” and the “Headache (Days) Median” value ([2]; GTN group) was “GTN 4 Days”. The “Headache (Days) Total” value ([2]; GTN group) was “GTN 127 Days”, the “Headache: percentage of patients” value ([2]; GTN group) was “(76%)” and the “No Side Effects” value ([2]; GTN group) was “GTN 30%”. The “Tenderness Outcomes vs placebo” value ([2]; anteroinferior subacromial tenderness) was “no significant differences”, the “Other Noted Side-Effects: Rash” value ([2]; application site, GTN group) was “Rash 8%” and the “number needed to treat (NNT)” value ([2]; excellent result at 24 weeks, Chi square p=0.007) was 4.5. The “reported rate of headache and average number of headaches experienced vs placebo” value ([2]; human, in vivo) was “significant between-group differences”, the “number of days affected by headache vs placebo” value ([2]; p=0.001) was “significant increase” and the “Discontinuations: Headache” value ([2]; patients, all GTN group) was “Headache 2”. For the same compound, the “Paracetamol Average” value ([2]; used for headache, GTN group) was “GTN 7 tablets”, the “Paracetamol Median” value ([2]; used for headache, GTN group) was “GTN 2 tablets” and the “Paracetamol Total” value ([2]; used for headache, GTN group) was “GTN 138 tablets”. The “Improved Patient Outcomes” value [2, 5] was 22%, the “patients with excellent improvement, patient reported” value ([2]; week 24, placebo 24%) was 46% and the “Night Pain—Average Result Used for Bilateral Patients” value ([3]; 3 years, N=24, placebo 0.29, p=0.06) was 0.07. The “Pain at Rest—Average Result Used for Bilateral Patients” value ([3]; 3 years, N=24, placebo 0.39, p=0.08) was 0.10, the “Hop Test—Average Result Used for Bilateral Patients” value [3, 6] was 0.15 and the “Pain With Activity—Average Result Used for Bilateral Patients” value [3, 6] was 0.15. For the same compound, the “Tenderness—Average Result Used for Bilateral Patients” value ([3]; 3 years, N=24, placebo 0.66, p=0.052) was 0.33, the “RTS, %” value ([3]; 3 years, N=24, placebo 71.4%, p=0.16) was 87.5% and the “Night Pain—All Heels (mean adjusted for baseline)” value ([3]; 3 years, placebo 0.27, p=0.07) was 0.10. For the same compound, the “Pain at Rest—All Heels (mean adjusted for baseline)” value ([3]; 3 years, placebo 0.35, p=0.07) was 0.10, the “Pain With Activity—All Heels (mean adjusted for baseline)” value ([3]; 3 years, placebo 0.50, p=0.059) was 0.16 and the “Tenderness—All Heels (mean adjusted for baseline)” value ([3]; 3 years, placebo 0.66, p=0.031) was 0.35. For the same compound, the “Hop Test—All Heels (mean adjusted for baseline)” value ([3]; 3 years, placebo 0.96, p=0.07) was 0.36, the “Night Pain—Average Result Used for Bilateral Patients” value ([3]; 24 weeks, N=24, placebo 0.34, p=0.11) was 0.15 and the “Pain at Rest—Average Result Used for Bilateral Patients” value ([3]; 24 weeks, N=24, placebo 0.46, p=0.20) was 0.26. For the same compound, the “Hop Test—Average Result Used for Bilateral Patients” value [3, 7] was 0.44, the “Pain With Activity—Average Result Used for Bilateral Patients” value [3, 7] was 0.44 and the “Tenderness—Average Result Used for Bilateral Patients” value ([3]; 24 weeks, N=24, placebo 0.90, p=0.43) was 0.70. For the same compound, the “Night Pain—All Heels (mean adjusted for baseline)” value ([3]; 24 weeks, placebo 0.30, p=0.36) was 0.19, the “Pain at Rest—All Heels (mean adjusted for baseline)” value ([3]; 24 weeks, placebo 0.41, p=0.35) was 0.29 and the “Pain With Activity—All Heels (mean adjusted for baseline)” value ([3]; 24 weeks, placebo 0.78, p=0.22) was 0.52. The “Tenderness—All Heels (mean adjusted for baseline)” value ([3]; 24 weeks, placebo 0.83, p=0.49) was 0.69, the “Hop Test—All Heels (mean adjusted for baseline)” value ([3]; 24 weeks, placebo 1.57, p=0.026) was 0.61 and the “results of each assessment vs placebo” value ([3]; both at 24 weeks and at 3 years) was “numerically better results”. The “Headache (Days) Average” value ([4]; GTN group) was “GTN 5 Days”, the “Headache (Days) Median” value ([4]; GTN group) was “GTN 3 Days” and the “Headache (Days) Total” value ([4]; GTN group) was 136 days. The “Headache: percentage of patients” value ([4]; GTN group) was 63%, the “No Side Effects” value ([4]; GTN group) was “GTN 35%” and the “Other Noted Side-Effects: Increase Axillary Sweating” value ([4]; GTN group) was “Sweating 2%”. For the same compound, the “Pain Outcomes: elbow pain with activity vs placebo” value ([4]; Week 2 (p=0.01)) was “significant decrease; also recorded: Decreased”, the “Tenderness Outcomes: lateral epicondylar tenderness vs placebo” value ([4]; Week 6 (p=0.02) / 12 (p=0.02)) was “significant decreases; also recorded: significantly less; also recorded: Decreased” and the “Force Outcomes: ORI-TETS mean peak force vs placebo” value ([4]; Week 24 (p=0.03)) was “significant increase; also recorded: Increased Mean”. The “Force Outcomes: ORI-TETS mean total work vs placebo” value ([4]; Week 24 (p=0.03)) was “significant increase; also recorded: Increased Mean”, the “Other Noted Side-Effects: Rash” value ([4]; application site, GTN group) was “Rash 21%,” and the “number needed to treat (NNT)” value ([4]; excellent result at 24 weeks, Chi square p=0.005) was 4.8. For the same compound, the “Discontinuations: Headache” value ([4]; patients, all GTN group) was “Headache 2”, the “Discontinuations: Rash” value ([4]; patients, all GTN group) was “Rash 2,” and the “Paracetamol Average” value ([4]; used for headache, GTN group) was “GTN 8 tablets”. For the same compound, the “Paracetamol Median” value ([4]; used for headache, GTN group) was “GTN 4 tablets”, the “Paracetamol Total” value ([4]; used for headache, GTN group) was “GTN 214 tablets” and the “Improved Patient Outcomes” value [4, 5] was 21%. The “patients with excellent improvement, patient reported” value ([4]; week 24, placebo 60%) was 81%.
